Measurements from PMC6121260, “Sulfated Metabolites of Flavonolignans and 2,3-Dehydroflavonolignans: Preparation and Properties” (International Journal of Molecular Sciences, 2018).
Marks after values point to notes of the source that are not given here.

Tests used:
DPPH radical scavenging = format: biochemical; settings: mean ± standard error
Procedure: (§1) N,N-dimethyl-p-phenylenediamine (DMPD) and 2,2′-azino-bis(3-ethylbenzothiazolin-6-sulfonic acid (ABTS) cation radical scavenging and ferric reducing antioxidant power (FRAP) were measured using kits from Bioquochem (Llanera-Asturias, Spain). Antiradical activity by 2,2-diphenyl-1-picrylhydrazyl radical scavenging assay, reducing capacity using Folin–Ciocalteau reagent (FCR), and anti-lipoperoxidant activity using inhibition of lipid peroxidation of rat liver microsomes induced by tert-butyl hydroperoxide were determined as described previously with modifications described in detail in our previous research.

[1] = ABTS+ cation radical scavenging; format: biochemical; settings: vitamin C equivalents, mean ± standard error
Procedure: as §1

[2] = Folin–Ciocalteu reagent (FCR) reduction; format: biochemical; settings: Folin–Ciocalteau reagent reduction, gallic acid equivalents, mean ± standard error
Procedure: as §1

[3] = DMPD+ cation radical scavenging; format: biochemical; settings: vitamin C equivalents, mean ± standard error
Procedure: as §1

[4] = Ferric reducing antioxidant power (FRAP); format: biochemical; settings: equivalents of Fe^2+, mean ± standard error
Procedure: as §1

[5] = Inhibition of lipoperoxidation (Lpx) induced by tert-butyl hydroperoxide; format: biochemical; settings: rat liver microsomal membranes, mean ± standard error
Procedure: as §1

[6] = Log p, octan-1-ol / phosphate buffer partition; format: physicochemical; settings: octan-1-ol / 6.6 mM phosphate buffer pH 7.4, 25 °C
Procedure: The hydrophobicity of the compounds was determined by measuring their partition coefficient P in a mixture of two immiscible phases—octan-1-ol and 6.6 mM phosphate buffer pH 7.4. Stock solutions (0.5 mM) were prepared in octan-1-ol (parent compounds) and in the buffer (sulfated compounds). The stock solutions (150 µL) were mixed with 150 µL of the immiscible phase in microcentrifuge tubes (1.5 mL); shaken for 2 h (750 rpm, 25 °C); and after incubation, the phases were separated. Water phases were diluted 1:1 with the mobile phase (acetonitrile/deionized water/HCO2H, 5:95:0.1; v/v) and analyzed by HPLC using the gradient G3 (see Section 3.1.3). Octan-1-ol phases were evaporated in the stream of air (70 °C), then dissolved in 10 µL of DMSO, and mixed with 90 µL of mobile phase and analyzed by HPLC. The log p values were calculated from the respective peak heights (h) using the formula log p = log(hoctanol/hbuffer). For comparison, log p values were calculated using the Molinspiration property engine v2016.10 (http://www.molinspiration.com, Molinspiration Cheminformatics, Slovensky Grob, Slovakia) (access on 26th October 2017).

[7] = test system: NAD(P)/quinone oxidoreductase 1 (NQO1) activity in Hepa1c1c7 cells; test: NQO1 activity in Hepa1c1c7 cells (Nrf2 pathway); format: cell-based, murine; settings: 48 h; for NQO1 activity, fold versus control: 50 µM
Procedure: The murine hepatoma Hepa1c1c7 cell line (ECACC, Salisbury, UK) was cultured in minimum essential medium α (M0894, Sigma-Aldrich, St. Louis, MO, USA), supplemented with 2.2 g/L NaHCO3 and 10% heat- and charcoal-treated fetal bovine serum (Biochrom, Berlin, Germany), and maintained at 37 °C in a humidified atmosphere containing 5% CO2. For all experiments, cells were seeded onto 96-well plates at 1 × 10^4 cells/well. After 24 h of stabilization, cells were treated for 48 h with 0.1% (v/v) DMSO (negative control), 2.5 µM sulforaphane (positive control; Sigma-Aldrich, St. Louis, MO, USA), or with the tested compounds in fresh culture medium. After the treatment, the activity of NQO1 was determined spectrophotometrically as described previously. Cells were washed with phosphate-buffered saline (PBS) and lysed with 75 µL of digitonin solution (0.8 g/L digitonin, 2 mM EDTA, pH 7.8) by shaking on an orbital shaker for 20 min at room temperature. A part of the cell lysate (20 µL) was used to determine the protein content. The remaining lysate (55 µL) was mixed with 200 µL of 0.5 M Tris-Cl buffer containing 10% (w/v) bovine serum albumin, 1.5% (v/v) Tween-20, 7.5 mM FAD, 150 mM glucose-6-phosphate, 2 U/mL glucose-6-phosphate dehydrogenase (Roche Diagnostics, Mannheim, Germany), 50 mM NADP^+, 25 mM menadione, and 0.7 mM 3-(4,5-dimethylthiazol-2-yl)-2,5-diphenyltetrazolium bromide (MTT). The mixture was incubated for 5 min at room temperature and the reaction was stopped with 50 µL of dicumarol suspension (0.3 mM dicumarol, 5 mM potassium phosphate, 0.5% (v/v) DMSO). The absorbance of the reduced MTT corresponding to the activity of NQO1 was measured at 610 nm on a spectrophotometric plate reader. The absorbance values were normalized to the protein content and used for the calculation of fold changes versus the control.

[8] = molecular target: T1, aryl sulfotransferase from rat liver (AST IV) (Rattus norvegicus, UniProt P17988); test: Substrate specificity of AST IV (whole E. coli cells, p-NPS donor); format: in vitro ADME; set-up: key: +: isolated sulfated product(s) and/or release of p-nitrophenol (p-NP); –: no formation of p-NP and/or isolated sulfated products; settings: whole E. coli cells expressing AST IV, 37 °C, 72 h
T1 construct: made in house; host or cells: E. coli BL21 (DE3) Gold (whole cells used as catalyst)
T1 sequence (P17988 whole entry): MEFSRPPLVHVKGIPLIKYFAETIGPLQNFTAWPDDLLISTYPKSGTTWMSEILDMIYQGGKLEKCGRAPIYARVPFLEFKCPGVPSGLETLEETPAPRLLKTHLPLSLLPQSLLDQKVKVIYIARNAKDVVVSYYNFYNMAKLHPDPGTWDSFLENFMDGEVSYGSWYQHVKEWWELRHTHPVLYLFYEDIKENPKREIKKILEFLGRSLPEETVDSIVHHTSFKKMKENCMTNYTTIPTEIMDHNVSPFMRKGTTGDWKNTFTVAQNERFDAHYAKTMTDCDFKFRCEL
Procedure: The plasmid bearing astIV gene was kindly provided by Prof. L. Elling, RWTH Aachen, Germany. The enzyme was expressed in E. coli BL21 (DE3) Gold as described, with modifications reported in our previous work. Whole E. coli cells producing the enzyme, freshly prepared according to the literature, were employed in the biotransformation experiments as a catalyst.
Silybin, silybin A, silybin B, silychristin, and silydianin (separately, each 50 mg, 0.104 mmol) and p-nitrophenyl sulfate (p-NPS, 35 mg, 0.136 mmol; Sigma-Aldrich, St. Louis, MO, USA) were dissolved in 3 mL DMSO, and 2 g (wet based) of whole cells expressing AST IV resuspended in K-phosphate buffer (pH 7.5, 17 mL) were added. The reaction mixture was incubated on a rotary shaker at 37 °C for 24 h. The cells were then removed by centrifugation (30 min, 5000 rpm, 5404 R Eppendorf, Germany), a new portion of fresh cells (2 g in 15 mL, wet based, resuspended in K-phosphate buffer) were added to the supernatant and incubated for 24 h. This step was repeated once more with a total reaction time of 72 h. The reaction was monitored by HPLC and after 72 h, the reaction mixtures, containing the sulfated product(s), were purified by preparative HPLC employing Asahipak GS-310 20F (Shodex, Tokyo, Japan) column with isocratic elution with 100% methanol. The fraction containing the putative sulfated product(s) was evaporated, dissolved in 1 mL of 80% methanol, and loaded onto a Sephadex LH-20 column (15 g dry weight, 12 mm i.d.) packed and eluted with 80% methanol. Only one sulfated product was obtained; silybin B 20-O-sulfate (14.5 mg, 0.03 mmol, yield 25%), whose identity was confirmed by comparison with previously published data.

Compound	IC50 (DPPH radical scavenging) [µM]	ABTS^+ [CE] [1]	FCR [GAE] [2]	DMPD^+ [CE] [3]	FRAP [Fe^2+] [4]	IC50 [5] [µM]	logP at 2 h [6]	NQO1 activity, fold versus control [7] [fold]	further results
COc1cc(C2Oc3c(O)cc(-c4oc5cc(O)cc(O)c5c(=O)c4O)cc3C2CO)ccc1OS(=O)(=O)O (stereo not shown) [2,3-Dehydro-silychristin-19-O-sulfate, 2,3-Dehydrosilychristin-19-O-sulfate]	7.9 ± 0.3	0.62 ± 0.02 ^n CE	1.44 ± 0.01 ^l GAE	1.02 ± 0.04 ^n CE	1.44 ± 0.04 ^r Fe^2+	12 ± 1.8	-2.24	1.4	IC50 (DPPH radical scavenging; listed as 2,3-dehydrosilychristin monosulfate): 8 µM
COc1cc(C2Oc3cc(-c4oc5cc(O)cc(O)c5c(=O)c4O)ccc3OC2CO)ccc1O (stereo not shown) [2,3-Dehydrosilybin, reference compound]	13.3 ± 0.6	0.77 ± 0.01 ^j CE	1.51 ± 0.09 ^l GAE	1.02 ± 0.02 ^n CE	0.81 ± 0.02 Fe^2+	10.4 ± 0.4	> 3		IC50 (DPPH radical scavenging; listed as 2,3-dehydrosilybin): 13 to 14 µM; FCR [GAE] ([2]; listed as 2,3-dehydrosilybin): 1.50 GAE; FRAP [Fe^2+] ([4]; listed as 2,3-dehydrosilybin): 0.81 Fe^2+
COc1cc(C2Oc3cc(-c4oc5cc(OS(=O)(=O)O)cc(O)c5c(=O)c4O)ccc3OC2CO)ccc1OS(=O)(=O)O (stereo not shown) [2,3-Dehydrosilybin-7,20-di-O-sulfate]	106 ± 4	0.55 ± 0.03 CE	0.95 ± 0.01 ^m GAE	1.90 ± 0.10 CE	1.61 ± 0.04 Fe^2+	90.7 ± 3.3	< -3	1.2	DMPD^+ [CE] ([3]; listed as 2,3-dehydrosilybin disulfate): 1.90 CE; FRAP [Fe^2+] ([4]; listed as 2,3-dehydrosilybin-7,20-di-O-sulfate): 1.61 Fe^2+
COc1cc(C2Oc3cc(-c4oc5cc(O)cc(O)c5c(=O)c4O)ccc3OC2CO)ccc1OS(=O)(=O)O (stereo not shown) [2,3-Dehydrosilybin-20-O-sulfate]	14.1 ± 0.5	0.71 ± 0.03 ^j CE	1.03 ± 0.01 ^m GAE	0.97 ± 0.02 ^n CE	1.46 ± 0.03 ^r Fe^2+	13.7 ± 0.4	-2.16	1.3	
COc1cc(C2Oc3c(O)cc(-c4oc5cc(O)cc(O)c5c(=O)c4O)cc3C2CO)ccc1O (stereo not shown) [2,3-Dehydrosilychristin, reference compound]	8.6 ± 0.8	0.93 ± 0.03 ^l CE	1.58 ± 0.04 ^l GAE	0.97 ± 0.02 ^n CE	0.28 ± 0.01 Fe^2+	14.6 ± 0.4	> 3		FCR [GAE] ([2]; listed as 2,3-dehydrosilychristin): 1.58 GAE
COc1cc([C@H]2Oc3cc([C@H]4Oc5cc(O)cc(O)c5C(=O)[C@@H]4O)ccc3O[C@@H]2CO)ccc1OS(=O)(=O)O [Silybin A 20-O-sulfate]	> 2500	0.02 ± 0.00 CE	0.08 ± 0.01 GAE	0.98 ± 0.01 ^n CE	0.01 ± 0.00 ^p Fe^2+	> 1000	-1.65	1.2	FCR [GAE] ([2]; listed as silybin sulfates A): 0.08 GAE
COc1cc([C@H]2Oc3cc([C@H]4Oc5cc(O)cc(O)c5C(=O)[C@@H]4O)ccc3O[C@@H]2CO)ccc1O [Silybin A, silybin A, reference compound]	490 ± 21	1.01 ± 0.03 ^i CE	0.33 ± 0.02 ^k GAE	0.96 ± 0.01 ^n CE	0.06 ± 0.00 Fe^2+	48.6 ± 0.4	1.52		Formation of p-NP [8]: – ^c
COc1cc(C2Oc3cc([C@H]4Oc5cc(O)cc(O)c5C(=O)[C@@H]4O)ccc3OC2CO)ccc1O (stereo partly shown) [Silybin A/B, Silybin]									Formation of p-NP [8]: + ^a
COc1cc([C@@H]2Oc3cc([C@H]4Oc5cc(O)cc(O)c5C(=O)[C@@H]4O)ccc3O[C@H]2CO)ccc1OS(=O)(=O)O [Silybin B 20-O-sulfate]	> 2500	0.04 ± 0.00 CE	0.16 ± 0.02 GAE	0.99 ± 0.01 ^n CE	0.01 ± 0.00 ^p Fe^2+	> 1000	-2.34	0.9	FCR [GAE] ([2]; listed as silybin sulfates B): 0.16 GAE
COc1cc(C2Oc3c(O)cc([C@H]4Oc5cc(O)cc(O)c5C(=O)[C@@H]4O)cc3C2CO)ccc1OS(=O)(=O)O (stereo partly shown) [Silychristin-19-O-sulfate]	587 ± 11	0.62 ± 0.03 ^k CE	0.80 ± 0.11 ^m GAE	1.56 ± 0.08^o CE	0.05 ± 0.01 ^q Fe^2+	134 ± 2	-2.25	1.3	
COc1cc([C@@H]2[C@H]3CO[C@@]4(O)C(=O)[C@@H]2C=C([C@H]2Oc5cc(O)cc(O)c5C(=O)[C@@H]2O)[C@@H]34)ccc1O [Silydianin]									Formation of p-NP [8]: + ^a
Cc1c(C)c2c(c(C)c1O)CCC(C)(C(=O)O)O2 (stereo not shown) [Trolox, reference compound]	2.9 ± 0.1		0.33 ± 0.00 ^k GAE			32.7 ± 2.4			
C[S+]([O-])CCCCN=C=S (stereo not shown) [sulforaphane, reference compound]									NQO1 activity, fold increase compared with the control ([7]; 2.5 µM, positive control): 4.3 fold
